Experiment in all cases: relative viability (nuclei count vs DMSO), 5 days (fraction); higher = more cells survive
Compound in the experiment “Axitinib + Crizotinib”: CNC(=O)c1ccccc1Sc1ccc2c(/C=C/c3ccccn3)n[nH]c2c1 [Axitinib] + C[C@@H](Oc1cc(-c2cnn(C3CCNCC3)c2)cnc1N)c1c(Cl)ccc(F)c1Cl [Crizotinib] (partner 1 µM)
An outline of the steps:
(§1)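 Relative viability divides the nuclei count in treated wells by that in vehicle wells. Lung cancer cell lines were seeded in 1536-well plates, dosed by pin tool the next day, and fixed and stained after 5 days in one step with final 0.05% Triton X-100, 1% formaldehyde and 1 ug/ml Hoechst. Dosing was a single drug or a fixed anchor-drug dose plus five library-drug doses (not always all listed) in √10 steps, and values are medians of duplicate plates imaged at 4×.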

Compound in the experiment “Bemcentinib + Luminespib”: Nc1nc(Nc2ccc3c(c2)CC[C@@H](N2CCCC2)CC3)nn1-c1cc2c(nn1)-c1ccccc1CCC2 [Bemcentinib] + CCNC(=O)c1noc(-c2cc(C(C)C)c(O)cc2O)c1-c1ccc(CN2CCOCC2)cc1 [Luminespib] (partner 0.01 µM)
In a few lines: as §1

Compound in the experiment “Bemcentinib + Crizotinib”: Nc1nc(Nc2ccc3c(c2)CC[C@@H](N2CCCC2)CC3)nn1-c1cc2c(nn1)-c1ccccc1CCC2 [Bemcentinib] + C[C@@H](Oc1cc(-c2cnn(C3CCNCC3)c2)cnc1N)c1c(Cl)ccc(F)c1Cl [Crizotinib] (partner 1 µM)
In a few lines:
as §1

Compound in the experiment “Bemcentinib + Pemetrexed”: Nc1nc(Nc2ccc3c(c2)CC[C@@H](N2CCCC2)CC3)nn1-c1cc2c(nn1)-c1ccccc1CCC2 [Bemcentinib] + Nc1nc2[nH]cc(CCc3ccc(C(=O)N[C@@H](CCC(=O)O)C(=O)O)cc3)c2c(=O)[nH]1 [Pemetrexed] (partner 0.2 µM)
In a few lines:
as §1

As to RERF-LC-KJ, the relative viability was 0.801 with Axitinib + Crizotinib (first compound 0.005 µM); 0.856 with Axitinib + Crizotinib (first compound 0.01581 µM); 0.862 with Axitinib + Crizotinib (first compound 0.05 µM); 0.771 with Axitinib + Crizotinib (first compound 0.1581 µM); 0.823 in the experiment with Axitinib + Crizotinib (first compound 0.5 µM); 1.45 with Bemcentinib + Luminespib (first compound 0.04 µM). In addition, the relative viability was determined as 1.23 with Bemcentinib + Luminespib (first compound 0.1265 µM); 1.24 in the experiment with Bemcentinib + Luminespib (first compound 0.4 µM); 1.17 with Bemcentinib + Luminespib (first compound 1.265 µM); 1.1 with Bemcentinib + Luminespib (first compound 4 µM); 0.919 with Bemcentinib + Crizotinib (first compound 0.04 µM); 0.856 with Bemcentinib + Crizotinib (first compound 0.1265 µM). Moreover, the relative viability in the experiment with Bemcentinib + Crizotinib (first compound 0.4 µM) was 0.78; in the experiment with Bemcentinib + Crizotinib (first compound 1.265 µM) it was 0.896; in the experiment with Bemcentinib + Crizotinib (first compound 4 µM) it was 0.841; with Bemcentinib + Pemetrexed (first compound 0.04 µM), 0.467; with Bemcentinib + Pemetrexed (first compound 0.1265 µM), 0.46; in the experiment with Bemcentinib + Pemetrexed (first compound 0.4 µM), 0.464. For the same cell line, the relative viability with Bemcentinib + Pemetrexed (first compound 1.265 µM) is 0.463; with Bemcentinib + Pemetrexed (first compound 4 µM), 0.449.
SK-LU-1: the relative viability in the experiment with Axitinib + Crizotinib (first compound 0.005 µM) is 0.999; with Axitinib + Crizotinib (first compound 0.01581 µM), 1.12; in the experiment with Axitinib + Crizotinib (first compound 0.05 µM), 1.11; with Axitinib + Crizotinib (first compound 0.1581 µM) it was 1.02; with Axitinib + Crizotinib (first compound 0.5 µM), 1.1; with Bemcentinib + Luminespib (first compound 0.04 µM) it was 0.204. Moreover, the relative viability was 0.202 with Bemcentinib + Luminespib (first compound 0.1265 µM); 0.196 with Bemcentinib + Luminespib (first compound 0.4 µM); 0.192 with Bemcentinib + Luminespib (first compound 1.265 µM); 0.198 with Bemcentinib + Luminespib (first compound 4 µM); 0.923 in the experiment with Bemcentinib + Crizotinib (first compound 0.04 µM); 1.09 in the experiment with Bemcentinib + Crizotinib (first compound 0.1265 µM). For the same cell line, the relative viability in the experiment with Bemcentinib + Crizotinib (first compound 0.4 µM) was 0.943; in the experiment with Bemcentinib + Crizotinib (first compound 1.265 µM), 1.07; with Bemcentinib + Crizotinib (first compound 4 µM), 1.09; in the experiment with Bemcentinib + Pemetrexed (first compound 0.04 µM) it was 1.02; with Bemcentinib + Pemetrexed (first compound 0.1265 µM), 1.04; with Bemcentinib + Pemetrexed (first compound 0.4 µM), 1.08. In addition, the relative viability is 1.08 with Bemcentinib + Pemetrexed (first compound 1.265 µM) and 0.984 with Bemcentinib + Pemetrexed (first compound 4 µM).
On to SK-MES-1, for which the relative viability with Axitinib + Crizotinib (first compound 0.005 µM) was found to be 1.06; with Axitinib + Crizotinib (first compound 0.01581 µM) it was 0.974; in the experiment with Axitinib + Crizotinib (first compound 0.05 µM) it was 1.07; in the experiment with Axitinib + Crizotinib (first compound 0.1581 µM) it was 1.02; in the experiment with Axitinib + Crizotinib (first compound 0.5 µM), 1.11; in the experiment with Bemcentinib + Luminespib (first compound 0.04 µM), 0.456. Further, the relative viability turned out to be 0.742 in the experiment with Bemcentinib + Luminespib (first compound 0.1265 µM); 0.786 with Bemcentinib + Luminespib (first compound 0.4 µM); 0.761 with Bemcentinib + Luminespib (first compound 1.265 µM); 1.07 with Bemcentinib + Luminespib (first compound 4 µM); 1.03 in the experiment with Bemcentinib + Crizotinib (first compound 0.04 µM); 0.955 with Bemcentinib + Crizotinib (first compound 0.1265 µM). Further, the relative viability amounted to 0.998 with Bemcentinib + Crizotinib (first compound 0.4 µM); 1.14 with Bemcentinib + Crizotinib (first compound 1.265 µM); 1.06 in the experiment with Bemcentinib + Crizotinib (first compound 4 µM); 0.958 with Bemcentinib + Pemetrexed (first compound 0.04 µM); 1.1 in the experiment with Bemcentinib + Pemetrexed (first compound 0.1265 µM); 0.987 with Bemcentinib + Pemetrexed (first compound 0.4 µM). The values for the relative viability with Bemcentinib + Pemetrexed (first compound 1.265 µM) and in the experiment with Bemcentinib + Pemetrexed (first compound 4 µM) were 1.03 and 0.967, respectively.
Consider SW 1573, for which the relative viability amounted to 0.745 in the experiment with Axitinib + Crizotinib (first compound 0.005 µM); 0.844 with Axitinib + Crizotinib (first compound 0.01581 µM); 0.905 in the experiment with Axitinib + Crizotinib (first compound 0.05 µM); 0.917 in the experiment with Axitinib + Crizotinib (first compound 0.1581 µM); 0.913 with Axitinib + Crizotinib (first compound 0.5 µM); 0.203 with Bemcentinib + Luminespib (first compound 0.04 µM). The relative viability was determined as 0.185 in the experiment with Bemcentinib + Luminespib (first compound 0.1265 µM); 0.212 in the experiment with Bemcentinib + Luminespib (first compound 0.4 µM); 0.152 with Bemcentinib + Luminespib (first compound 1.265 µM); 0.215 with Bemcentinib + Luminespib (first compound 4 µM); 0.724 in the experiment with Bemcentinib + Crizotinib (first compound 0.04 µM); 0.814 with Bemcentinib + Crizotinib (first compound 0.1265 µM). The relative viability stood at 0.684 in the experiment with Bemcentinib + Crizotinib (first compound 0.4 µM); 0.776 with Bemcentinib + Crizotinib (first compound 1.265 µM); 0.764 with Bemcentinib + Crizotinib (first compound 4 µM); 0.944 with Bemcentinib + Pemetrexed (first compound 0.04 µM); 0.865 with Bemcentinib + Pemetrexed (first compound 0.1265 µM); 0.89 with Bemcentinib + Pemetrexed (first compound 0.4 µM). Besides, the relative viability was found to be 0.839 with Bemcentinib + Pemetrexed (first compound 1.265 µM) and 0.725 with Bemcentinib + Pemetrexed (first compound 4 µM).
On to UMC-11, for which the relative viability is 0.556 with Axitinib + Crizotinib (first compound 0.005 µM); 0.59 in the experiment with Axitinib + Crizotinib (first compound 0.01581 µM); 0.59 in the experiment with Axitinib + Crizotinib (first compound 0.05 µM); 0.584 with Axitinib + Crizotinib (first compound 0.1581 µM); 0.482 with Axitinib + Crizotinib (first compound 0.5 µM); 0.964 with Bemcentinib + Luminespib (first compound 0.04 µM). In addition, the relative viability with Bemcentinib + Luminespib (first compound 0.1265 µM) is 1.06; in the experiment with Bemcentinib + Luminespib (first compound 0.4 µM), 1.1; with Bemcentinib + Luminespib (first compound 1.265 µM), 0.967; in the experiment with Bemcentinib + Luminespib (first compound 4 µM), 1.04; in the experiment with Bemcentinib + Crizotinib (first compound 0.04 µM), 0.568; with Bemcentinib + Crizotinib (first compound 0.1265 µM), 0.57. Moreover, the relative viability amounted to 0.589 in the experiment with Bemcentinib + Crizotinib (first compound 0.4 µM); 0.692 with Bemcentinib + Crizotinib (first compound 1.265 µM); 0.662 with Bemcentinib + Crizotinib (first compound 4 µM); 0.839 with Bemcentinib + Pemetrexed (first compound 0.04 µM); 0.881 with Bemcentinib + Pemetrexed (first compound 0.1265 µM); 0.969 with Bemcentinib + Pemetrexed (first compound 0.4 µM). For the same cell line, the results for the relative viability with Bemcentinib + Pemetrexed (first compound 1.265 µM) and in the experiment with Bemcentinib + Pemetrexed (first compound 4 µM) were 0.808 and 0.728, respectively.

These data come from the supplement of paper PMC10307832.
